Assay results taken from patent US11903955B2, “Methods of treating heart failure with reduced ejection fraction” (ASTRAZENECA AB, priority 2019, dated 2024).
Where “and” joins values, the source holds several entries; their conditions need not be identical. Equal entries are not always repeated. Where two headings read alike, the source gives them in different places. Marks after values point to notes of the source that are not given here.

Columns and labels:
patients with HFrEF = conditions: for Mild hyperkalemia (>5.5 mmol/L), HR (95% CI) / Moderate/Severe hyperkalemia (>6.0 mmol/L), HR (95% CI): dapagliflozin vs placebo; for Mild hyperkalemia (>5.5 mmol/L), No. events/patients: excluding baseline K+ > 5.5; for Moderate/Severe hyperkalemia (>6.0 mmol/L), No. events/patients: excluding baseline K+ > 6.0
Description: Hyperkalemia often limits the use of mineralocorticoid receptor antagonists (MRAs) in patients with heart failure and reduced ejection fraction (HFrEF), denying these patients a life-saving therapy.

[1] = tested on: patients with chronic heart failure with reduced ejection fraction (LVEF ≤40%); conditions: for Change in KCCQ total symptom score at 8 mo., Win ratio (95% CI): >1 indicates superiority; for KCCQ-TSS increase, points more with dapagliflozin compared to placebo: baseline to 8 months
Description: KCCQ total symptom score was analyzed as a composite rank-based endpoint, incorporating patient vital status at 8 months along with change in score from baseline to 8 months in surviving patients, using the rank analysis of covariance method, with a corresponding win ratio used to estimate the magnitude of treatment effect.^17 The consistency of the treatment effect among 14 prespecified subgroups were assessed.
The KCCQ was completed electronically by patients, without assistance by site study staff (as validated), and evaluated at randomization, 4-months, and 8-months. The KCCQ is a 23-item, self-administered disease-specific instrument that quantifies symptoms (frequency, severity and recent change), physical function, quality of life, and social function over the prior 2 weeks. In the KCCQ, the total symptom score (TSS) quantifies the symptom frequency and severity, KCCQ clinical summary score (KCCQ-CSS) includes the physical function and symptoms domains, and KCCQ overall summary score (OSS) is derived from the following domains (total symptom score, physical function, quality of life and social function). […] Scores are transformed to a range of 0-100, in which higher scores reflect better health status.
In this study, patients were divided into three subgroups, based on the tertiles of baseline KCCQ-TSS (which was the KCCQ domain prespecified as the secondary endpoint): (i) ≤65.6, (ii) 65.7-87.5, (iii) >87.5 points.
The differences between treatment groups in mean KCCQ-TSS, CSS, and OSS at 4 months and 8 months in surviving patients were analyzed, using a mixed model for repeated measurements and estimated the least-squares mean differences between treatment groups adjusted for baseline values. Responder analyses were conducted examining proportions of patients with a deterioration, and clinically important improvements in KCCQ at 8 months. Established, clinically meaningful thresholds for KCCQ (≥5 point (at least small), ≥10 point (moderate), and ≥15 point (large) change) were used for all responder analyses across the KCCQ domains.
Odds ratios to estimate differences between treatment groups, and their corresponding 95% confidence intervals and 2-sided p-values were estimated from logistic regression models (which included treatment group, stratification variable (T2D at randomization) and baseline KCCQ values); the models used imputed data accounting for missing KCCQ values and estimates were combined using Rubin's rules.

[2] = dapagliflozin vs placebo, at 8 months
[3] = individuals with diabetes, dapagliflozin vs placebo
[4] = individuals without diabetes, dapagliflozin vs placebo

What does the source list for `CCOc1ccc(Cc2cc([C@@H]3O[C@H](CO)[C@@H](O)[C@H](O)[C@H]3O)ccc2Cl)cc1` [Dapagliflozin, dapagliflozin]?
Mild hyperkalemia (>5.5 mmol/L), rate per 100 py (patients with HFrEF; All patients): 8.1 per 100 py; Moderate/Severe hyperkalemia (>6.0 mmol/L), rate per 100 py (patients with HFrEF; All patients): 1.0 per 100 py; Mild hyperkalemia (>5.5 mmol/L), HR (95% CI) (patients with HFrEF; All patients): 0.93 (0.78-1.11); Moderate/Severe hyperkalemia (>6.0 mmol/L), HR (95% CI) (patients with HFrEF; All patients): 0.64 (0.42-0.99); Mild hyperkalemia (>5.5 mmol/L), No. events/patients (patients with HFrEF; All patients): 243/2292; Moderate/Severe hyperkalemia (>6.0 mmol/L), No. events/patients (patients with HFrEF; All patients): 34/2358; Mild hyperkalemia (>5.5 mmol/L), rate per 100 py (patients with HFrEF; MRA treated at baseline): 8.6 per 100 py; Moderate/Severe hyperkalemia (>6.0 mmol/L), rate per 100 py (patients with HFrEF; MRA treated at baseline): 0.9 per 100 py; Mild hyperkalemia (>5.5 mmol/L), HR (95% CI) (patients with HFrEF; MRA treated at baseline): 0.86 (0.70-1.05); Moderate/Severe hyperkalemia (>6.0 mmol/L), HR (95% CI) (patients with HFrEF; MRA treated at baseline): 0.50 (0.29-0.85); Moderate/Severe hyperkalemia (>6.0 mmol/L), HR (95% CI) (patients with HFrEF; MRA treated at baseline, listed as dapagliflozin): 0.50 (0.29, 0.85); Mild hyperkalemia (>5.5 mmol/L), No. events/patients (patients with HFrEF; MRA treated at baseline): 180/1632; Moderate/Severe hyperkalemia (>6.0 mmol/L), No. events/patients (patients with HFrEF; MRA treated at baseline): 21/1683; Mild hyperkalemia (>5.5 mmol/L), rate per 100 py (patients with HFrEF; No MRA at baseline): 7.1 per 100 py; Moderate/Severe hyperkalemia (>6.0 mmol/L), rate per 100 py (patients with HFrEF; No MRA at baseline): 1.4 per 100 py; Mild hyperkalemia (>5.5 mmol/L), HR (95% CI) (patients with HFrEF; No MRA at baseline): 1.20 (0.84-1.72); Moderate/Severe hyperkalemia (>6.0 mmol/L), HR (95% CI) (patients with HFrEF; No MRA at baseline): 1.17 (0.52-2.62); Mild hyperkalemia (>5.5 mmol/L), No. events/patients (patients with HFrEF; No MRA at baseline): 63/660; Moderate/Severe hyperkalemia (>6.0 mmol/L), No. events/patients (patients with HFrEF; No MRA at baseline): 13/675; Mild hyperkalemia, patients (%) (patients with HFrEF; patients treated with an MRA): 180 (11%) patients (%); moderate/severe hyperkalemia, patients (%) (patients with HFrEF; patients treated with an MRA): 21 (1.2%) patients (%); Change in KCCQ total symptom score at 8 mo. ([1]; No T2DM (N = 1298)): 5.4 ± 17.7; Change in KCCQ total symptom score at 8 mo. ([1]; T2DM (N = 1075)): 7.0 ± 19.7; KCCQ total symptom score, mean difference dapagliflozin vs placebo ([1]; all patients, at 8 months): 2.8 points; patients with deterioration (≥5 point decline) in KCCQ-TSS ([1]; all patients, at 8 months): 25% and 25.3%; patients with five or greater point (at least small) improvement in KCCQ-TSS ([1]; all patients, at 8 months): 58% and 58.3%; Change in KCCQ total symptom score at 8 mo. ([1]; all patients, baseline to month 8, mean ± SD): 6.1 ± 18.6 points; Change in KCCQ total symptom score at 8 mo. ([1]; all patients, baseline to month 8, mean ± SD, listed as dapagliflozin): 6.1±18.6 points; mean KCCQ-CSS, points higher than placebo ([1]; at 4 months): 1.8 points; mean KCCQ-OSS, points higher than placebo ([1]; at 4 months): 1.7 points; mean KCCQ-TSS, points higher than placebo ([1]; at 4 months): 1.9 points; mean KCCQ-CSS, points higher than placebo ([1]; at 8 months): 2.5 points; mean KCCQ-OSS, points higher than placebo ([1]; at 8 months): 2.3 points; number needed to treat (NNT) for at least small (≥5 point) improvement in KCCQ-TSS ([1]; at 8 months): 14 (10-23); number needed to treat (NNT) for large (≥15 point) improvement in KCCQ-TSS ([1]; at 8 months): 18 (12-35); number needed to treat (NNT) for moderate (≥10 point) improvement in KCCQ-TSS ([1]; at 8 months): 15 (11-25); patients with large (≥15 point) improvement in KCCQ-TSS ([1]; at 8 months): 54.0%; patients with moderate (≥10 point) improvement in KCCQ-TSS ([1]; at 8 months): 54.5%; Change in KCCQ total symptom score at 8 mo., win-ratio (95% CI) ([1]; dapagliflozin vs placebo, No T2DM): 1.15 (1.05, 1.26); Change in KCCQ total symptom score at 8 mo., win-ratio (95% CI) ([1]; dapagliflozin vs placebo, T2DM): 1.22 (1.11, 1.35); Change in KCCQ total symptom score at 8 mo., Win ratio (95% CI) ([1]; dapagliflozin vs placebo, all patients): 1.18 (1.11-1.26)†; Change in KCCQ total symptom score at 8 mo., Win ratio (95% CI) ([1]; dapagliflozin vs placebo, all patients, listed as dapagliflozin): 1.18; odds ratio (95% CI) for large (≥15 point) improvement in KCCQ-TSS [1, 2]: 1.14 (1.07-1.22); odds ratio (95% CI) for moderate (≥10 point) improvement in KCCQ-TSS [1, 2]: 1.15 (1.08-1.22); odds ratio for deterioration (≥5 point decline) in KCCQ-TSS [1, 2]: 0.84; odds ratio for ≥5 point improvement in KCCQ-TSS [1, 2]: 1.15; patients with deterioration in KCCQ-TSS ([1]; individuals with diabetes): 24.5%; patients with ≥5-point improvement in KCCQ-TSS ([1]; individuals with diabetes): 58.9%; odds ratio for deterioration in KCCQ-TSS [1, 3]: 0.78 (0.71, 0.87); odds ratio for ≥5-point improvement in KCCQ-TSS [1, 3]: 1.20 (1.09, 1.31); patients with an increase of at least 5 points in KCCQ-TSS ([1]; individuals without diabetes): 57.7%; patients with significant deterioration in KCCQ-TSS ([1]; individuals without diabetes): 26.0%; odds ratio for increase of at least 5 points in KCCQ-TSS [1, 4]: 1.12 (95% CI 1.03, 1.22); odds ratio for significant deterioration in KCCQ-TSS [1, 4]: 0.88 (0.81, 0.97); KCCQ-TSS increase, points more with dapagliflozin compared to placebo ([1]; patients with diabetes): 3.5 (95% CI 1.6-5.4) points; KCCQ-TSS increase, points more with dapagliflozin compared to placebo ([1]; patients without diabetes): 2.2 (95% CI 0.7-3.7) points
